Data: ChEMBL document CHEMBL6121041, “Design and synthesis of isatin derivative payloaded peptide-drug conjugate as tubulin inhibitor against colorectal cancer” (Eur J Med Chem, 2025)
Active and inactive are the calls of the source. No cut-off for these calls is given here. Residues, ends and D or L forms follow the SMILES beside them. *: point of attachment. X1 = COc1ccc(CN2C(=O)C(=O)c3cc(-c4ccc(OC(=O)CCC(=O)*)cc4)ccc32)cc1

Key:
[1] = Cytotoxicity against HUVEC cells assessed as reduction in cell viability incubated for 48 hrs by MTT assay; assay type: toxicity, cell-based; details: human
[2] = test system: HCT-116; assay: Antiproliferative activity against human HCT-116 cells assessed as reduction in cell viability incubated for 48 hrs by MTT assay; assay type: functional, cell-based; details: HCT-116, 48 h
[3] = Cytotoxicity against HK-2 cells assessed as reduction in cell viability incubated for 48 hrs by MTT assay; assay type: toxicity, cell-based; details: human
[4] = test system: 786-0; assay: Antiproliferative activity against human 786-0 cells assessed as reduction in cell viability incubated for 48 hrs by MTT assay; assay type: functional, cell-based; details: 786-0, 48 h
[5] = test system: HCC827; assay: Antiproliferative activity against human HCC827 cells assessed as reduction in cell viability incubated for 48 hrs by MTT assay; assay type: functional, cell-based; details: HCC827, 48 h
[6] = test system: K562; assay: Antiproliferative activity against human K562 cells assessed as reduction in cell viability incubated for 48 hrs by MTT assay; assay type: functional, cell-based; details: K562, 48 h
[7] = test system: MGC-803; assay: Antiproliferative activity against human MGC-803 cells assessed as reduction in cell viability incubated for 48 hrs by MTT assay; assay type: functional, cell-based; details: MGC-803, 48 h
[8] = test system: HepG2; assay: Antiproliferative activity against human HepG2 cells assessed as reduction in cell viability incubated for 48 hrs by MTT assay; assay type: functional, cell-based; details: HepG2, 48 h
[9] = test system: HCT-116; assay: Inhibition of colony formation in human HCT-116 cells at 0.4 to 0.8 uM measured after 10 days by crystal violet staining based inverted microscopic analysis; assay type: functional, cell-based; details: dose 0.4-0.8 µM, time 10.0 day
[10] = test system: HCT-116; assay: Inhibition of wound closure in human HCT-116 cells at 0.4 uM measured after 48 hrs by wound healing assay; assay type: functional, cell-based
[11] = test system: HCT-116; assay: Induction of apoptosis in human HCT-116 cells assessed as cell fragmentation at 0.4 to 0.8 microM measured after 24 hrs by microscopic analysis; assay type: functional, cell-based; details: dose 0.4-0.8 µM
[12] = test system: HCT-116; assay: Induction of apoptosis in human HCT-116 cells assessed as morphological changes at 0.4 to 0.8 microM measured after 24 hrs by microscopic analysis; assay type: functional, cell-based; details: dose 0.4-0.8 µM
[13] = test system: HCT-116; assay: Induction of apoptosis in human HCT-116 cells assessed as morphological changes at 0.4 to 0.8 microM measured after 48 hrs by microscopic analysis; assay type: functional, cell-based; details: dose 0.4-0.8 µM
[14] = test system: HCT-116; assay: Induction of apoptosis in human HCT-116 cells at 0.4 to 0.8 uM incubated for 24 hrs by Annexin V-FITC/PI staining based flow cytometric analysis; assay type: functional, cell-based; details: dose 0.4-0.8 µM
[15] = test system: HCT-116; assay: Cell cycle arrest in human HCT-116 cells assessed as accumulation of cells at G2/M phase at 0.4 to 0.8 uM incubated for 24 hrs by PI staining based flow cytometric analysis; assay type: functional; details: dose 0.4-0.8 µM
[16] = test system: HCT-116; assay: Induction of apoptosis in human HCT-116 cells assessed as increase in caspase-3 activation level at 0.8 uM measured after 24 hrs by Western blot analysis; assay type: functional, cell-based
[17] = test system: HCT-116; assay: Induction of apoptosis in human HCT-116 cells assessed as increase in PARP activation level at 0.8 uM measured after 24 hrs by Western blot analysis; assay type: functional, cell-based
[18] = test system: HCT-116; assay: Induction of apoptosis in human HCT-116 cells assessed as downregulation of Bcl-2 protein at 0.8 uM measured after 24 hrs by Western blot analysis; assay type: functional, cell-based
[19] = test system: HCT-116; assay: Induction of apoptosis in human HCT-116 cells assessed as upregulation of Bax protein at 0.8 uM measured after 24 hrs by Western blot analysis; assay type: functional, cell-based
[20] = test system: HCT-116; assay: Cell cycle arrest in human HCT-116 cells assessed as decrease in CDK1 expression at 0.8 uM incubated for 24 hrs by Western blot analysis; assay type: functional, cell-based
[21] = test system: HCT-116; assay: Cell cycle arrest in human HCT-116 cells assessed as increase in cyclin B1 expression at 0.8 uM incubated for 24 hrs by Western blot analysis; assay type: functional, cell-based
[22] = test system: HCT-116; assay: Cell cycle arrest in human HCT-116 cells assessed as increase in p21 expression at 0.8 uM incubated for 24 hrs by Western blot analysis; assay type: functional, cell-based
[23] = test system: HCT-116; assay: Cell cycle arrest in human HCT-116 cells assessed as increase in p53 expression at 0.8 uM incubated for 24 hrs by Western blot analysis; assay type: functional, cell-based
[24] = test system: HCT-116; assay: Inhibition of beta-tubulin expression in human HCT-116 cells at 0.8 uM incubated for 24 hrs by Western blot analysis; assay type: functional, cell-based
[25] = Toxicity in SPF-grade Balb/c nude mouse xenografted with human HCT-116 cells assessed as average body weight at 33.86 to 45.17 mg/kg, ip measured after 10 days; assay type: organism-based; details: in vivo, 240 h, dose 33.86-45.17 mg/kg, time 10 day
[26] = test system: HCT-116; assay: Antitumor activity against human HCT-116 cells xenografted in SPF-grade Balb/c nude mouse model assessed as reduction in tumor size at 33.86 to 45.17 mg/kg, ip administered daily for 11 days by photographic analysis; assay type: functional, organism-based; details: dose 33.86-45.17 mg/kg, time 11.0 day
[27] = test system: HCT-116; assay: Antitumor activity against human HCT-116 cells xenografted in SPF-grade Balb/c nude mouse model assessed as tumor growth inhibition at 33.86 mg/kg, ip administered daily for 11 days relative to control; assay type: functional; details: HCT-116, 264 h, time 11 day, read-out: TGI
[28] = test system: HCT-116; assay: Antitumor activity against human HCT-116 cells xenografted in SPF-grade Balb/c nude mouse model assessed as inhibition of tumor cell growth at 33.86 to 45.17 mg/kg, ip administered daily for 11 days by H and E staining based analysis; assay type: functional, organism-based; details: dose 33.86-45.17 mg/kg, time 11.0 day

SMILES | IC50 at 48 h [1] [µM] | IC50 [2] [µM] | IC50 at 48 h [3] [µM] | IC50 [4] [µM] | IC50 [5] [µM] | IC50 [6] [µM] | IC50 [7] [µM] | IC50 [8] [µM] | other results
CC(=O)N[C@@H](CCCCN)C(=O)N1CCC[C@H]1C(=O)N[C@@H](CO)C(=O)N[C@@H](CO)C(=O)N1CCC[C@H]1C(=O)N1CCC[C@H]1C(=O)N[C@@H](CCC(=O)O)C(=O)N[C@@H](CCC(=O)O)C(N)=O (Ac-KPSSPPEE-NH2) | > 100 | > 100 |  |  |  |  |  |  | 
COc1ccc(CN2C(=O)C(=O)c3cc(-c4ccc(OC)cc4)cc([N+](=O)[O-])c32)cc1 | 10.6 | 0.263 | 1.21 | 15.2 | 3.62 | 0.47 | 58.2 | > 100 | 
COc1ccc(CN2C(=O)C(=O)c3cc(-c4ccc(OC(=O)CCC(=O)NCCCC[C@H](NC(C)=O)C(=O)N5CCC[C@H]5C(=O)N[C@@H](CO)C(=O)N[C@@H](CO)C(=O)N5CCC[C@H]5C(=O)N5CCC[C@H]5C(=O)N[C@@H](CCC(=O)O)C(=O)N[C@@H](CCC(=O)O)C(N)=O)cc4)ccc32)cc1 (Ac-K(X1)PSSPPEE-NH2) | 43 | 0.23 |  |  |  |  |  |  | inhibition [9]: Active; inhibition [10]: Active; Activity [11]: Active; Activity [12]: Active; Activity [13]: Active; More Evident Apoptotic State Observed; Activity [14]: Active; Activity [15]: Active; Activity [16]: Active; Activity [17]: Active; Activity [18]: Active; Activity [19]: Active; Activity [20]: Active; Activity [21]: Active; Activity [22]: Active; Activity [23]: Active; inhibition [24]: Active; Activity [25]: ~ 10 g; Activity [26]: Active; inhibition in vivo at 33.86 mg/kg [27]: 47%; Activity [28]: Active
COc1ccc(CN2C(=O)C(=O)c3cc(-c4ccc(SC)cc4)ccc32)cc1 | 25 | 0.728 | 13.4 | 30.8 | 4.15 | 0.5 | 76.5 | 71 | 
COc1ccc(CN2C(=O)C(=O)c3cc(-c4ccc(OC)cc4)cc(N)c32)cc1 | > 100 | > 100 | > 100 | > 100 | 13.7 | 89.4 | > 100 | > 100 | 
COc1ccc(CN2C(=O)C(=O)c3cc(-c4ccc(COC(C)=O)cc4)ccc32)cc1 | 34.7 | 2.02 | 9.02 | 50.5 | 29.3 | 1.14 | > 100 | 6.78 | 
COc1ccc(CN2C(=O)C(=O)c3cc(-c4ccc(CBr)cc4)ccc32)cc1 | 16 | 0.349 | 1.99 | 33.3 | 24.2 | 0.77 | 27 | > 100 | 
COc1ccc(CN2C(=O)C(=O)c3cc(-c4ccc(CO)cc4)ccc32)cc1 | 18.8 | 0.786 | 12.6 | 40.4 | 34.7 | 0.81 | 29.2 | > 100 | 
COC(=O)c1ccc(-c2ccc3c(c2)C(=O)C(=O)N3Cc2ccc(OC)cc2)cc1 | 81.7 | 1.6 | 8.54 | 138 | 12 | 2.07 | 86.2 | > 100 | 
COc1ccc(CN2C(=O)C(=O)c3cc(-c4ccc(C(=O)O)cc4)ccc32)cc1 | 34.7 | 18.7 | 30.9 | 87.6 | 4.15 | > 100 | 91.1 | > 100 | 
CCN(CC)CCNC(=O)c1c(C)[nH]c(/C=C2\C(=O)Nc3ccc(F)cc32)c1C [SUNITINIB] | 7.7 | 2.23 | 6.88 | 9.02 | 1.34 | 1.25 | 8.25 | 4.7 | 
COc1ccc(CN2C(=O)C(=O)c3cc(-c4ccc(OC)cc4)ccc32)cc1 | 27.2 | 0.768 | 10.5 | 51.4 | 10.1 | 0.31 | 19 | 43 | 
